Test results reported in BindingDB's records for doi:10.1021/jm020211+ (National Institute of Diabetes and Digestive and Kidney …, 2002).

Biological target: T1, Adenosine receptor A3 (Homo sapiens, UniProt P0DMS8)
T1 sequence (P0DMS8 whole entry): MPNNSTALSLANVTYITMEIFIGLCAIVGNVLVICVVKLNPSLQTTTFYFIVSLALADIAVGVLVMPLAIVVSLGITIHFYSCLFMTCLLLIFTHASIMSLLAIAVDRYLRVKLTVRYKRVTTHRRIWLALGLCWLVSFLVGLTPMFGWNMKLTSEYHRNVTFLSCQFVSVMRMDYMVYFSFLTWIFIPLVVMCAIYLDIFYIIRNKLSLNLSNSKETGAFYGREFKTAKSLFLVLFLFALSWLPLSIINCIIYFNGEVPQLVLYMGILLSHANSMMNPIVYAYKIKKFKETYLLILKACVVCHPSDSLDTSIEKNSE
Experiment: Effect on forskolin-stimulated cyclic AMP production in intact chinese hamster ovary (CHO) cell expressing the human Adenosine A3 receptor

EC50: 803 nM
SMILES: Nc1nc(Cl)nc2c1ncn2C1C(O)C(O)C2(CO)CC12 (stereo unspecified) [4-(6-Amino-2-chloro-purin-9-yl)-1-hydroxymethyl-bicyclo[3.1.0]hexane-2,3-diol]
